In assay [1] the test system is MCF7. The assay is described as follows: Ratio of oleanolic acid IC50 to compound IC50 for human MCF7 cells. It counts as functional.
The next assay has as its system BGC-823. Kind of assay: Cytotoxicity against human BGC823 cells by MTT assay. Type of assay: functional, cell-based. A general note: Formazan colour is commonly taken as a measure of viable cells.
For the next assay, the system named is A549. Kind of assay: Cytotoxicity against human A549 cells by MTT assay. It counts as functional, cell-based.
Assay [2] has as its system MCF7. Kind of assay: Cytotoxicity against human MCF7 cells by MTT assay. It counts as functional, cell-based.
For assay [3], the system named is PC-3. Kind of assay: Cytotoxicity against human PC3 cells by MTT assay. It counts as functional, cell-based.
Assay [4] concerns PC-3. Kind of assay: Ratio of oleanolic acid IC50 to compound IC50 for human PC3 cells. Type of assay: functional.
Assay [5] deals with PC-3. Kind of assay: Ratio of adriamycin IC50 to compound IC50 for human PC3 cells. Type of assay: functional.
A further assay relates to HepG2. The assay is described as follows: Cytotoxicity against human HepG2 cells. Type of assay: functional, cell-based.

Active and inactive are the calls of the source. The rule behind the calls is not given here.

Broadly, the IC50 is the concentration that inhibits the measured activity by half. A low value points to greater potency. As to `CC1(C)CC[C@]2(C(=O)O)CC[C@]3(C)C(=CC[C@@H]4[C@@]5(C)CC[C@H](OC(=O)CCN6CCCC6)C(C)(C)[C@@H]5CC[C@]43C)[C@@H]2C1`, in the assay on MCF7 [1], the “Ratio IC50” value is 17. Moreover, the IC50 is 27.2 µM in the assay on BGC-823, 6.12 µM with A549, 1.98 µM in the assay on MCF7 [2] and 5.45 µM with PC-3 [3].

For the molecule `CC1(C)CC[C@]2(C(=O)O)CC[C@]3(C)C(=CC[C@@H]4[C@@]5(C)CC[C@H](OC(=O)CN6CCOCC6)C(C)(C)[C@@H]5CC[C@]43C)[C@@H]2C1`, the IC50 in the assay with BGC-823 was 24.5 µM; in the assay on A549, 8.27 µM; in the assay with MCF7 [2] it was 14.9 µM; in the assay with PC-3 [3], 6.29 µM.

With `CC1(C)CC[C@]2(C(=O)O)CC[C@]3(C)C(=CC[C@@H]4[C@@]5(C)CC[C@H](OC(=O)Cn6ccnc6)C(C)(C)[C@@H]5CC[C@]43C)[C@@H]2C1`, the IC50 in the assay with BGC-823 turned out to be 16.3 µM; in the assay with A549 it was 16.9 µM; in the assay on MCF7 [2], 894 µM; in the assay on PC-3 [3], 57.5 µM.

Regarding `CC1(C)CC[C@]2(C(=O)OCC(=O)O)CC[C@]3(C)C(=CC[C@@H]4[C@@]5(C)CC[C@H](OC(=O)C[C@H](O)C(=O)O)C(C)(C)[C@@H]5CC[C@]43C)[C@@H]2C1`, the concentration for half-maximal inhibition (IC50) in the assay on BGC-823 came to 9.36 µM; with A549, 19.3 µM; in the assay with MCF7 [2], 35.1 µM; with PC-3 [3], 8.07 µM.

As for `CC1(C)CC[C@]2(C(=O)OCC(=O)O)CC[C@]3(C)C(=CC[C@@H]4[C@@]5(C)CC[C@H](OC(=O)CCC(=O)NCCS(=O)(=O)O)C(C)(C)[C@@H]5CC[C@]43C)[C@@H]2C1`, the IC50 worked out at 84.5 µM in the assay on BGC-823, 268 µM with A549, 51.7 µM with MCF7 [2] and 10.4 µM in the assay with PC-3 [3].

As for `CC1(C)CC[C@]2(C(=O)OCC(=O)O)CC[C@]3(C)C(=CC[C@@H]4[C@@]5(C)CC[C@H](OC(=O)CCC(=O)O)C(C)(C)[C@@H]5CC[C@]43C)[C@@H]2C1`, the IC50 was 13.4 µM in the assay on BGC-823, 11.9 µM with A549, 805 µM in the assay on MCF7 [2] and 7.72 µM in the assay with PC-3 [3].

For the molecule `CC1(C)CC[C@]2(C(=O)O)CC[C@]3(C)C(=CC[C@@H]4[C@@]5(C)CC[C@H](OC(=O)C[C@H](O)C(=O)O)C(C)(C)[C@@H]5CC[C@]43C)[C@@H]2C1`, the entries for the “Ratio IC50” value in the assay on PC-3 [4] and in the assay on PC-3 [5] were 17 and 1.7, respectively. Further, the IC50 worked out at 4.18 µM in the assay with BGC-823, 0.71 µM in the assay with A549, 16.2 µM with MCF7 [2] and 0.39 µM in the assay with PC-3 [3].

For `CC1(C)CC[C@]2(C(=O)O)CC[C@]3(C)C(=CC[C@@H]4[C@@]5(C)CC[C@H](OC(=O)CCN6CCOCC6)C(C)(C)[C@@H]5CC[C@]43C)[C@@H]2C1`, the IC50 in the assay on BGC-823 was 81.9 µM; with A549, 728 µM; in the assay with MCF7 [2], 718 µM; in the assay with PC-3 [3] it was 6.38 µM.

`CC1(C)CC[C@]2(C(=O)O)CC[C@]3(C)C(=CC[C@@H]4[C@@]5(C)CC[C@H](O)C(C)(C)[C@@H]5CC[C@]43C)[C@@H]2C1` [OLEANOLIC_ACID]: the IC50 with BGC-823 turned out to be 2.59 µM; in the assay on A549, 0.39 µM; with MCF7 [2] it was 35.4 µM; with PC-3 [3] it was 6.51 µM.

For `COC(=O)[C@]12CCC(C)(C)C[C@@H]1C1=CC[C@@H]3[C@@]4(C)CC[C@H](N)C(C)(C)[C@@H]4CC[C@@]3(C)[C@]1(C)CC2`, in the assay on HepG2, 4 µM corresponded to half-maximal inhibition (IC50).

Turning to `CC1(C)CC[C@]2(C(=O)O)CC[C@]3(C)C(=CC[C@@H]4[C@@]5(C)CC[C@H](OC(=O)CCC(=O)NCCS(=O)(=O)O)C(C)(C)[C@@H]5CC[C@]43C)[C@@H]2C1`, the “Ratio IC50” value in the assay with PC-3 [4] was determined as 17. In addition, the IC50 in the assay on BGC-823 worked out at 7.32 µM; with A549 it was 1.31 µM; in the assay on MCF7 [2], 5.19 µM; in the assay with PC-3 [3], 0.83 µM.

`COc1cccc2c1C(=O)c1c(O)c3c(c(O)c1C2=O)C[C@@](O)(C(=O)CO)C[C@@H]3O[C@H]1C[C@H](N)[C@H](O)[C@H](C)O1` [DOXORUBICIN]: in the assay on MCF7 [2], it took 1.65 µM to reach half-maximal inhibition (IC50).

In the case of `CC1(C)CC[C@]2(C(=O)O)CC[C@]3(C)C(=CC[C@@H]4[C@@]5(C)CC[C@H](OC(=O)CCC(=O)O)C(C)(C)[C@@H]5CC[C@]43C)[C@@H]2C1` [OLEANOLIC ACID 3-O-SUCCINATE], the IC50 came out at 5.59 µM in the assay with BGC-823, 6.57 µM in the assay with A549, 60.7 µM in the assay with MCF7 [2] and 7.11 µM in the assay with PC-3 [3].

For the molecule `CC1(C)CC[C@]2(C(=O)O)CC[C@]3(C)C(=CC[C@@H]4[C@@]5(C)CC[C@H](OC(=O)CCn6ccnc6)C(C)(C)[C@@H]5CC[C@]43C)[C@@H]2C1`, the IC50 in the assay with BGC-823 was 76.3 µM; in the assay with A549 it was 0.22 µM; in the assay with PC-3 [3], 50.5 µM. Besides, the inhibition entry in the assay with MCF7 [2] is “inactive”.

Turning to `CC1(C)CC[C@]2(C(=O)O)CC[C@]3(C)C(=CC[C@@H]4[C@@]5(C)CC[C@H](OC(=O)CN6CCCC6)C(C)(C)[C@@H]5CC[C@]43C)[C@@H]2C1`, the IC50 amounted to 87.2 µM in the assay with BGC-823, 8.53 µM with A549, 12.9 µM with MCF7 [2] and 28.3 µM in the assay with PC-3 [3].

The values are drawn from ChEMBL document CHEMBL2346627, “Synthesis and cytotoxicity evaluation of oleanolic acid derivatives” (Bioorg Med Chem Lett, 2013).
